Assay results: paper PMC9516332 (Frontiers in Oncology, 2022)

Tests used:
Assay in all cases: Kinase panel profiling at 1 µmol/L (MSA or IMAP), percentage inhibition
Format in all cases: biochemical
[1] = biological target: panel of 255 wild-type kinases (Homo sapiens, UniProt P08922); settings: kinase ROS; 1 µmol/L single concentration; read-out: %-inhibition at 1 µmol/L, ROS
[2] = biological target: panel of 255 wild-type kinases (Homo sapiens, UniProt P19784); settings: kinase CK2α2/β; 1 µmol/L single concentration; read-out: %-inhibition at 1 µmol/L, CK2α2/β
[3] = biological target: panel of 255 wild-type kinases (Homo sapiens, UniProt P22694); settings: kinase PKACβ; 1 µmol/L single concentration; read-out: %-inhibition at 1 µmol/L, PKACβ
[4] = biological target: panel of 255 wild-type kinases (Homo sapiens, UniProt P31751); settings: AKT2 kinase assay; 1 µmol/L single concentration; read-out: %-inhibition AKT2
[5] = biological target: panel of 255 wild-type kinases (Homo sapiens, UniProt P35916); settings: kinase FLT4; 1 µmol/L single concentration; read-out: %-inhibition at 1 µmol/L, FLT4
[6] = biological target: T1, panel of 255 wild-type kinases (Homo sapiens, UniProt P43403); settings: kinase ZAP70; 1 µmol/L single concentration; read-out: %-inhibition at 1 µmol/L, ZAP70
T1 sequence (P43403 1-619): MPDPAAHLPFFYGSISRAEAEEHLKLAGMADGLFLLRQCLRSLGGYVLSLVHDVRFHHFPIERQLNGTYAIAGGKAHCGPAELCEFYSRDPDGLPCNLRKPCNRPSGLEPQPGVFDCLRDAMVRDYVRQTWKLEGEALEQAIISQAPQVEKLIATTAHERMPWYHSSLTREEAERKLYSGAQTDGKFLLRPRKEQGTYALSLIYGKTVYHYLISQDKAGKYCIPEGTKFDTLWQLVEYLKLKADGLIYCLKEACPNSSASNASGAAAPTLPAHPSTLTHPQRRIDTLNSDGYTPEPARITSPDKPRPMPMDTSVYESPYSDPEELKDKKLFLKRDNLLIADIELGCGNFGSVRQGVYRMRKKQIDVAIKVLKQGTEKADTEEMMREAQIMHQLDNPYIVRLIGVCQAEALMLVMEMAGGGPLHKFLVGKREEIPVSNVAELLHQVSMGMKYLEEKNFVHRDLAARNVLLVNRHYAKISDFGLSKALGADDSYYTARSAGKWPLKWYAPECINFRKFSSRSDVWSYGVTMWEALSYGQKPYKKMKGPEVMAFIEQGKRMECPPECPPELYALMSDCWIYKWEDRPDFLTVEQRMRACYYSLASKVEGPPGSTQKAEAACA

[7] = biological target: panel of 255 wild-type kinases (Homo sapiens, UniProt P50750); settings: CDK9/CycT1 kinase assay; 1 µmol/L single concentration; read-out: %-inhibition CDK9/CycT1
[8] = biological target: panel of 255 wild-type kinases (Homo sapiens, UniProt P51812); settings: kinase RSK2; 1 µmol/L single concentration; read-out: %-inhibition at 1 µmol/L, RSK2
[9] = biological target: panel of 255 wild-type kinases (Homo sapiens, UniProt Q13131); settings: AMPKα1/β1/γ1 kinase assay; 1 µmol/L single concentration; read-out: %-inhibition AMPKα1/β1/γ1
[10] = biological target: T2, panel of 255 wild-type kinases (Homo sapiens, UniProt Q16566); settings: CaMK4 kinase assay; 1 µmol/L single concentration; read-out: %-inhibition CaMK4
T2 sequence (Q16566 1-473): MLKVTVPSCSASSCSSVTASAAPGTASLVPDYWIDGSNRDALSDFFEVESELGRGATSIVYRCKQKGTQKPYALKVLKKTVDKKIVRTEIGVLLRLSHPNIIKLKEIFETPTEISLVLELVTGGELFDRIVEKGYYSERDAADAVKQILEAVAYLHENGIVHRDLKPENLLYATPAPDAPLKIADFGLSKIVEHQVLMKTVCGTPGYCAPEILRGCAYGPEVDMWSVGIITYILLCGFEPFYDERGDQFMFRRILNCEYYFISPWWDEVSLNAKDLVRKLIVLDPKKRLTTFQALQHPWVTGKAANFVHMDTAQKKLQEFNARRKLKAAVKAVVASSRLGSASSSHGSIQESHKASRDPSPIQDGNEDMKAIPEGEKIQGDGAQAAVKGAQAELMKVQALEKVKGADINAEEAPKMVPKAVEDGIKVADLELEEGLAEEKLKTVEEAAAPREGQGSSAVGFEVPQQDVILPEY

[11] = biological target: panel of 255 wild-type kinases (Homo sapiens, UniProt Q7KZI7); settings: MARK2; 1 µmol/L single concentration; read-out: %-inhibition, MARK2
[12] = biological target: T3, panel of 255 wild-type kinases (Homo sapiens, UniProt Q9NRA0); settings: kinase SPHK2; 1 µmol/L single concentration; read-out: %-inhibition at 1 µmol/L, SPHK2
T3 sequence (Q9NRA0 1-654): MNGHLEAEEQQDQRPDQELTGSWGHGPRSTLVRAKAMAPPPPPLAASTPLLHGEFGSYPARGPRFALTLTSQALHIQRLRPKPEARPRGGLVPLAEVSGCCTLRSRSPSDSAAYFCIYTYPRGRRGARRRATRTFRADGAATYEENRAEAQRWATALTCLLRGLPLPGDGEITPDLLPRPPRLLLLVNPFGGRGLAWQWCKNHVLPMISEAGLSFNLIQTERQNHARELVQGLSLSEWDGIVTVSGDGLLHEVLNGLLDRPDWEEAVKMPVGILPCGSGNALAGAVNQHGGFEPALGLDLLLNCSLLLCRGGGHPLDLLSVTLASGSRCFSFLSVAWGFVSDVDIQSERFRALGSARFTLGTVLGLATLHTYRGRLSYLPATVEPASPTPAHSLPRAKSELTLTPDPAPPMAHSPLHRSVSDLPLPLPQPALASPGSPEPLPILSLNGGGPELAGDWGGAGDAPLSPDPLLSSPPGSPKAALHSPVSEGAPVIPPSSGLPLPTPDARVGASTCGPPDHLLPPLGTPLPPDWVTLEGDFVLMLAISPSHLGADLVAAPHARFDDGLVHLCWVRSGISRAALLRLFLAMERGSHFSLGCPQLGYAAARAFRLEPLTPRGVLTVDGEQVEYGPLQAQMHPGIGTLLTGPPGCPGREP

SMILES	inhibition at 1 µM [1] [%]	inhibition at 1 µM [2] [%]	inhibition at 1 µM [3] [%]	inhibition at 1 µM [4] [%]	inhibition at 1 µM [5] [%]	inhibition at 1 µM [6] [%]	inhibition at 1 µM [7] [%]	inhibition at 1 µM [8] [%]	inhibition at 1 µM [9] [%]	inhibition at 1 µM [10] [%]	inhibition at 1 µM [11] [%]	inhibition at 1 µM [12] [%]
Cc1cc(Nc2ncnc3ccc(NC4=NC(C)(C)CO4)cc23)ccc1Oc1ccn2ncnc2c1 [tucatinib]	21	-2.25	-15	-1.46	13	3.36	1.53	-3	-4	0.435	-12	0.368
Cn1cnc2c(F)c(Nc3ccc(Br)cc3Cl)c(C(=O)NOCCO)cc21 [selumetinib]	15	-2	-21	0.316	8	-1.11	-2.15	-1.52	-2.66	-2	-14	-4
C[C@H]1Oc2cc(cnc2N)-c2c(nn(C)c2C#N)CN(C)C(=O)c2ccc(F)cc21 [lorlatinib]	101	-2.41	-18	-2.31	5	6	-2.48	-0.881	-3.58	1.56	11	10
CCN1C(=O)N(c2c(F)c(OC)cc(OC)c2F)Cc2cnc3[nH]c(CN4CCOCC4)cc3c21 [pemigatinib]	3.74	-5	-7	-2.2	99	2	7	-5	-6.52	1.2	50	-5.31
C=CC(=O)N1CCC([C@@H]2CCNc3c(C(N)=O)c(-c4ccc(Oc5ccccc5)cc4)nn32)CC1 [zanubrutinib]	1.9	-4	-8	-4	6.34	2	-1.15	-6	-5.51	0.733	-21	-6.64
Cn1cc(-c2cc3c(N4CCN(c5ncc([C@@](C)(N)c6ccc(F)cc6)cn5)CC4)ncnn3c2)cn1 [avapritinib]	67	-1.79	-19	-0.192	88	13	49	2.57	9	-0.588	-12	0.914

More lines, now with the values ahead:

inhibition at 1 µM [1] [%]	inhibition at 1 µM [2] [%]	inhibition at 1 µM [3] [%]	inhibition at 1 µM [4] [%]	inhibition at 1 µM [5] [%]	inhibition at 1 µM [6] [%]	inhibition at 1 µM [7] [%]	inhibition at 1 µM [8] [%]	inhibition at 1 µM [9] [%]	inhibition at 1 µM [10] [%]	inhibition at 1 µM [11] [%]	inhibition at 1 µM [12] [%]	SMILES
-6	-1.53	-20	-0.795	5	1.11	-0.929	-1.78	-5	-7	-0.36	6.5	Cc1nc(NC(=O)N2CCC[C@H]2C(N)=O)sc1-c1ccnc(C(C)(C)C(F)(F)F)c1 [alpelisib]
22	1.11	6	-1.19	34	-4	3.6	8	-12	2.44	-0.433	7.54	COc1cc2ncnc(Nc3ccc(F)c(Cl)c3)c2cc1NC(=O)/C=C/CN1CCCCC1 [dacomitinib]
94	4.29	20	0.305	99	9	6	23	46	0.271	-15	-2.48	CO[C@]1(C(=O)N[C@@H](C)c2ccc(-n3cc(F)cn3)nc2)CC[C@H](c2nc(C)cc(Nc3cc(C)[nH]n3)n2)CC1 [pralsetinib]
